Where two headings read alike, the source gives them in different places.
Assays:
PARP14 MD2 [1] = target: T1, PARP14 MD2 (Homo sapiens, UniProt Q460N5); assay: Biophysical KD determination (Bio-Layer Interferometry or Isothermal Titration Calorimetry); assay type: binding; parameters: PARP14 MD2 (second MD of PARP14)
T1 sequence (Q460N5 1003-1190 limits assumed): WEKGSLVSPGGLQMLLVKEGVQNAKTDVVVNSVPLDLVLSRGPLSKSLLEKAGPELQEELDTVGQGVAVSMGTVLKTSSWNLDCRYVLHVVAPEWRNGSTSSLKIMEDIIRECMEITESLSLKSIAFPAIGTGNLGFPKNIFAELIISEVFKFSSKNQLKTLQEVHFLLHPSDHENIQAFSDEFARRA
Description: (§1) Compounds were profiled for binding activity with PARP14 MD2 through a competitive (AlphaScreen™) binding assay measuring the displacement of ADP-ribose peptide from PARP14 MD2.[11a]

PARP14 MD2 [2] = target: T1, PARP14 MD2; assay: AlphaScreen competitive binding assay, displacement of ADP-ribose peptide from PARP14 MD2; parameters: PARP14 MD2 (second MD of PARP14); conditions: AlphaScreen, PARP14 MD2, read-out: IC50
Description: as §1

PARP14 MD2 [3] = target: T1, PARP14 MD2; assay: BioLayer Interferometry (BLI)

CS(=O)(=O)Nc1cc(C#N)ccc1-c1cccc2c1[nH]c1ccccc12 [compound 56, N-(2-(9H-Carbazol-1-yl)-5-cyanophenyl)methanesulfonamide]
Kd (PARP14 MD2 [1]; Table 1, BLI or ITC): 5200 ± 1700 nM

CC(=O)Nc1cccc(C)c1-c1cccc2c1[nH]c1ccccc12 [compound 57, N-(2-(9H-Carbazol-1-yl)-3-methylphenyl)acetamide]
IC50 (PARP14 MD2 [2]; Table 1): 1700 ± 100 nM | Kd (PARP14 MD2 [1]; Table 1, BLI or ITC): 1600 ± 700 nM

O=C(Cc1cccnc1)Nc1ccccc1-c1cccc2c1[nH]c1ccccc12 [compound 83, N-(2-(9H-Carbazol-1-yl)phenyl)-2-(pyridin-3-yl)acetamide]
IC50 (PARP14 MD2 [2]; Table 2): 1100 nM | Kd (PARP14 MD2 [1]; Table 2, BLI or ITC): 1500 nM

Cc1ccc(CC(=O)Nc2ccccc2-c2cccc3c2[nH]c2ccccc23)cn1 [compound 84, N-(2-(9H-Carbazol-1-yl)phenyl)-2-(6-methylpyridin-3-yl)acetamide]
IC50 (PARP14 MD2 [2]; Table 2): 1000 nM | Kd (PARP14 MD2 [1]; Table 2, BLI or ITC): 2700 nM

O=C(Cc1cnccn1)Nc1ccccc1-c1cccc2c1[nH]c1ccccc12 [compound 85, N-(2-(9H-Carbazol-1-yl)phenyl)-2-(pyrazin-2-yl)acetamide]
IC50 (PARP14 MD2 [2]; Table 2): 2100 ± 100 nM | Kd (PARP14 MD2 [1]; Table 2, BLI or ITC): 3900 nM

N#Cc1ccc(F)c(CS(=O)(=O)Nc2ccccc2-c2cccc3c2[nH]c2ccccc23)c1 [compound 100, N-(2-(9H-Carbazol-1-yl)phenyl)-1-(5-cyano-2-fluorophenyl)methanesulfonamide]
IC50 (PARP14 MD2 [2]; Table 2): 1200 nM | Kd (PARP14 MD2 [1]; Table 2, BLI or ITC): 1300 nM

N#Cc1cccc(CC(=O)Nc2ccccc2-c2cccc3c2[nH]c2ccccc23)c1 [compound 107, N-(2-(9H-Carbazol-1-yl)phenyl)-2-(3-cyanophenyl)acetamide]
IC50 (PARP14 MD2 [2]; Table 2): 2100 ± 100 nM

N#Cc1cccc(CS(=O)(=O)Nc2ccccc2-c2cccc3c2[nH]c2ccccc23)c1 [compound 108, N-(2-(9H-Carbazol-1-yl)phenyl)-1-(3-cyanophenyl)methanesulfonamide]
Kd (PARP14 MD2 [3]; read-out: KD (BLI)): 550 nM | Kd (PARP14 MD2 [3]; read-out: calculated KD (BLI)): 550 nM | IC50 (PARP14 MD2 [2]; Table 2): 660 ± 30 nM | Kd (PARP14 MD2 [1]; Table 2, BLI or ITC): 550 nM
